The numbers were not newly measured in patent US11413229B2, “Oral plaque dispersion agent” (KAO CORPORATION, priority 2016, dated 2022), which cites them from elsewhere.

The conditions of this data set: at 20° C.

As for `CC(CO)(CO)CO` [Trimethylolethane, 1,1,1-tris(hydroxymethyl)ethane], the solubility to water is 60 g/100 mL.
